We go through three sequences from patent US20200095296A1, “USE OF PEPTIDES AS BIOMARKERS IN THE DIAGNOSIS, CONFIRMATION AND TREATMENT OF A NEUROLOGICAL DISORDER AND TCR AND/OR HLA IMMUNOPROFILING IN NEURODEGENERATIVE DISEASE” (THE TRUSTEES OF COLUMBIA UNIVERSITY IN THE CITY OF NEW YORK, priority 2017, published 2020).

The target in one assay is HLA A*11:01 (Homo sapiens, UniProt P04439, A114D/D185E/E176A/F33Y/L180Q/S129P/T187R). Briefly: competition binding assay, purified HLA A*11:01 molecules. The note with it: in vitro.
In the next assay the test system is PBMC. Briefly: IFNγ and IL-5 dual ELISPOT after 14 days culture of PBMC with α-syn peptide pools. Particulars: IFNγ and IL-5 ELISPOT. It counts as cell-based, human. How it is done: To determine whether α-syn derived peptides were recognized by T cells, responses were assayed to pools that each contained ˜twenty 9-10aa peptides predicted to bind common HLA class I types 15, and 15aa peptides spanning the protein that could elicit HLA class II responses. PBMCs from PD and HC were stimulated for 14 days, and IFNγ and IL-5 responses were measured by dual color ELISPOT, enabling quantification of responsive cells. Positive pools were deconvoluted to identify the peptides eliciting cytokine responses. IFNγ was used as a representative cytokine to detect CD8+/HLA class I and CD4+ Th1/Class II T cells, and IL-5 as a representative cytokine secreted by CD4+ Th2/Class II T cells. […] No cells producing both IL-5 and IFNγ were detected. […]
After 14 days of culture with individual peptide pools (5 μg/ml), the response to pools and individual peptides (5 μg/ml) was measured by IFNγ and IL-5 dual ELISPOT 37. […]
To determine whether α-syn-derived peptides were recognized by T cells, responses to pools that each contained approximately twenty peptides of 9-10 amino acids (a.a.) predicted to bind common HLA class I types, (Vita, R. et al. The immune epitope database (IEDB) 3.0. Nucleic Acids Res. 43, D405-D412 (2015)) and peptides of 15 amino acids spanning the protein that could elicit HLA class II responses were assayed. […] No cells producing both IL-5 and IFNγ were detected. […]

Take GVLYVGSKTK [α-syn 10 mer aa36-45]: the “binding to purified HLA A*11:01 molecules (IC50)” value at HLA A*11:01 was “bound poorly”.

As for “GKTKEGVLYVGSKTK [α-syn 15 mer aa31-45, Y39 region]”, the cytokine response elicited result was “apparent Class II restricted IL-5 and IFNγ response” with PBMC; “apparent class II restricted IL-5 and IFNy response” with PBMC (listed as GKEGVLYVGSKTK).

As for VLYVGSKTKK [10 mer aa37-46], the “binding to purified HLA A*11:01 molecules (IC50)” value at HLA A*11:01 was “bound poorly”.
